The results in this text go back to ChEMBL document CHEMBL1134784, “Synthesis and screening for antiacetylcholinesterase activity of (1-benzyl-4-oxopiperidin-3-ylidene)methylindoles and -pyrroles related to donepezil” (J Med Chem, 2001).

The assay deals with Acetylcholinesterase (Homo sapiens, UniProt P22303).
Sequence of Acetylcholinesterase (P22303 whole entry): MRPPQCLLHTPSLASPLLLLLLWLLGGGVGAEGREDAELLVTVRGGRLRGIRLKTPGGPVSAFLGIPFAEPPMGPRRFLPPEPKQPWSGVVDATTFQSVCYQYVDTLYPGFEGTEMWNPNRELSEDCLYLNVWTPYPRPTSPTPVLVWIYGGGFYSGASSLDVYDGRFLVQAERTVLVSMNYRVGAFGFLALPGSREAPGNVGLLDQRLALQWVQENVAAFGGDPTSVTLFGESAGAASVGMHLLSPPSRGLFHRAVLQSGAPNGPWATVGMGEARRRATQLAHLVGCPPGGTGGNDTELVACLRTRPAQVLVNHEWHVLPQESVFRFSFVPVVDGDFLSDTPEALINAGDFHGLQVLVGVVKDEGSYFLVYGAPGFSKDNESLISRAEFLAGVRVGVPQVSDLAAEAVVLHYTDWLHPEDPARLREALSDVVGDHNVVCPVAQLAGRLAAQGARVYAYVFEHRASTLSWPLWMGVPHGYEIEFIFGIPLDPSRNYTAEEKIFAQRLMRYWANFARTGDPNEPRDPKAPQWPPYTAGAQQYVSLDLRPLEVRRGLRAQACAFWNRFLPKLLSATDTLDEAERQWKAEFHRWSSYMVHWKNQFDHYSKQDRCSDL
Description: Inhibitory concentration required against acetylcholinesterase activity
With `O=C1CCN(Cc2ccccc2)C/C1=C\c1c[nH]c2ccccc12`, the half-maximal inhibitory concentration (IC50) (commonly the concentration needed to halve the response being measured) came to 8 µM.

In turn, `O=C1CCN(Cc2ccccc2)C/C1=C\c1cn(C(=O)c2ccc([N+](=O)[O-])cc2)c2ccccc12` displayed an IC50 of 50 µM.

On to `O=C1CCN(Cc2ccccc2)C/C1=C\c1cccn1C(=O)c1ccccc1`, for which half-maximal inhibition (IC50) required 30 µM.

Compound `CC(=O)n1cc(/C=C2\CN(Cc3ccccc3)CCC2=O)c2ccccc21` showed an IC50 of 11 µM.

For the compound `Cc1[nH]c(C)c(/C=C2\CN(Cc3ccccc3)CCC2=O)c1C=O`, the IC50 worked out at 30 µM.

The compound `O=C1CCN(Cc2ccccc2)C/C1=C\c1cn(C(=O)c2ccccc2)c2ccccc12` registered an IC50 of 70 µM.

For `O=C1CCN(Cc2ccccc2)C/C1=C\c1cn(C(=O)c2ccc(F)cc2)c2ccccc12`, inhibition was half-maximal at 60 µM (IC50).

`COc1ccc2c(c1)c(/C=C1\CN(Cc3ccccc3)CCC1=O)cn2C(=O)c1ccccc1` returned an IC50 of 80 µM.

Compound `O=C1CCN(Cc2ccccc2)C/C1=C\c1ccn(C(=O)c2ccccc2)c1` yielded an IC50 of 30 µM.

`N#Cc1ccc(C(=O)n2cc(/C=C3\CN(Cc4ccccc4)CCC3=O)c3ccccc32)cc1` registered an IC50 of 20 µM.

In turn, `COc1ccc2[nH]cc(/C=C3\CN(Cc4ccccc4)CCC3=O)c2c1` gave an IC50 of 6 µM.

Take `O=C1CCN(Cc2ccccc2)C/C1=C\c1ccc[nH]1`: the IC50 is 11 µM.

`COc1ccc(C(=O)n2cc(/C=C3\CN(Cc4ccccc4)CCC3=O)c3ccccc32)cc1` showed an IC50 of 70 µM.

`O=C1CCN(Cc2ccccc2)C/C1=C\c1cn(C(=O)c2ccc(Cl)cc2)c2ccccc12`: inhibition was half-maximal at 50 µM (IC50).

`O=C1CCN(Cc2ccccc2)C/C1=C\c1c[nH]c2ccc(OCc3ccccc3)cc12` displayed an IC50 of 25 µM.

For `O=C1/C(=C/c2ccc[nH]2)CN(Cc2ccccc2)C/C1=C\c1ccc[nH]1`, the IC50 was 18 µM.

Compound `CC(C)(C)OC(=O)n1cc(/C=C2\CN(Cc3ccccc3)CCC2=O)c2ccccc21` came in with an IC50 of 30 µM.

`O=C1CCN(Cc2ccccc2)C/C1=C\c1cc[nH]c1` gave an IC50 of 6 µM.

`O=C1/C(=C/c2cc[nH]c2)CN(Cc2ccccc2)C/C1=C\c1cc[nH]c1` gave an IC50 of 6 µM.

Take `O=C1CCN(Cc2ccccc2)C/C1=C\c1cn(Cc2ccccc2)c2ccccc12`: the IC50 is more than 100 µM.
